Assay results: patent US10156556B2, “Method for determining ecological risks of polycyclic aromatic hydrocarbon in water body” (priority 2013, dated 2018)

How the values were obtained:
[1] = relative to benzoapyrene; Nisbet and Lagoy 1992; cited from earlier work
[2] = test system: 95% of species in the protected water ecological system; experiment: Calculation of HC5 from log-transformed NOEC data; settings: HC5=exp(Xm-KLSm), six species, KL 1.81
Excerpt: (3) calculating benzoapyrene concentration values HC5 of 95% of species in the protected water ecological system: i.e., performing logarithmic transformation on the toxicity data and applying a formula HC5=exp(Xm−KLSm)′ to calculate, wherein m is the number of species, Xm means the arithmetic mean value of the toxicity data of the m species after the logarithmic transformation; Sm means the standard deviation of the toxicity data of the m species after the logarithmic transformation; and KL is a regulation factor, obtained from literature;
(3) Calculating the benzoapyrene concentration values HC5 of 95% of species in the protected water ecological system: logarithmic transformation is performed on the toxicity data in Table 1 to obtain that the arithmetic mean value Xm 3.77 ug/L and the standard deviation Sm 4.95 ug/L, and calculation is conducted using a formula HC5=exp(Xm−KLSm)i, wherein the regulation factor KL is 1.81 (from published literature: Aldenberg and Slob, Confidence limits for hazardous concentrations based on logistically distributed NOEC toxicity data, 1991), and the HC5 value is obtained as 0.0056 ug/L.

[3] = test system: water ecological system of the lake; experiment: Ecological risk quotient, Monte Carlo sampling (10,000 times); settings: single pollutant, water body of the lake
Excerpt: (5) calculating ecological risk quotient values RQi of specific polycyclic aromatic hydrocarbon pollutants: calculating according to a formula
[formula] wherein ECi is the environmental concentration of an i^th polycyclic aromatic hydrocarbon pollutant, TEFi is a toxic equivalency factor of the i^th polycyclic aromatic hydrocarbon pollutant relative to the benzoapyrene, and a concrete numerical value is from literature, and HC5 is the benzoapyrene concentration values of 95% of species in the protected water ecological system; conducting random sampling for 10,000 times using a Monte Carlo sampling method according to the concentration distribution characteristics of different polycyclic aromatic hydrocarbons; and drawing cumulative probability distribution curves of the ecological risk quotient values of each polycyclic aromatic hydrocarbon pollutant according to the Monte Carlo sampling result, and analyzing the probability that the risk quotient values thereof RQi are no less than one; and
(6) calculating the total ecological risk quotient value RQt of each polycyclic aromatic hydrocarbon pollutant: calculating according to a formula […]

[4] = test system: Green algae; settings: chronic toxicity data, PAN Pesticide Database and EPA EcoTox Database; cited from earlier work
[5] = test system: Chironomidae; settings: chronic toxicity data, PAN Pesticide Database and EPA EcoTox Database; cited from earlier work
[6] = test system: Daphnia magna; settings: chronic toxicity data, PAN Pesticide Database and EPA EcoTox Database; cited from earlier work
[7] = test system: Mussel; settings: chronic toxicity data, PAN Pesticide Database and EPA EcoTox Database; cited from earlier work
[8] = test system: Frog; settings: chronic toxicity data, PAN Pesticide Database and EPA EcoTox Database; cited from earlier work
[9] = test system: Barbel fish; settings: chronic toxicity data, PAN Pesticide Database and EPA EcoTox Database; cited from earlier work

| Structure (SMILES) | Toxic equivalency factor [1] | also measured |
| --- | --- | --- |
| c1cc2c3c(cccc3c1)CC2 [Ace] | 0.001 | – |
| C1=Cc2cccc3cccc1c23 [Acy] | 0.001 | – |
| c1ccc2cc3ccccc3cc2c1 [Ant, anthracene] | 0.01 | – |
| c1ccc2c(c1)cc1ccc3cccc4ccc2c1c34 [B[a]P, benzoapyrene] | 1 | HC5 (concentration value of 95% of species in the protected water ecological system) [2]: 0.0056 ug/L; probability of the risk quotient value RQi greater than or equal to one [3]: 54.4%; NOEC [4]: 250000 µg/L; NOEC [5]: 5 µg/L; NOEC [6]: 0.02 µg/L; NOEC [7]: 500 µg/L; NOEC [8]: 10 µg/L; NOEC [9]: 54.2 µg/L |
| c1ccc2c(c1)-c1cccc3c1c-2cc1ccccc13 [B[b]F] | 0.1 | – |
| c1cc2ccc3ccc4ccc5cccc6c(c1)c2c3c4c56 [B[ghi]P] | 0.01 | – |
| c1ccc2cc3c(cc2c1)-c1cccc2cccc-3c12 [B[k]F] | 0.1 | – |
| c1ccc2c(c1)ccc1c3ccccc3ccc21 [Chr] | 0.01 | – |
| c1ccc2c(c1)ccc1cc3c(ccc4ccccc43)cc12 [DBA] | 1 | probability of the risk quotient value RQi greater than or equal to one [3]: 61.8% |
| c1ccc2c(c1)-c1ccc3ccc4cccc5cc-2c1c3c45 [Ind] | 0.1 | – |
| c1ccc2ccccc2c1 [Nap] | 0.001 | – |
